Measured values taken from US8575193B2, “N-substituted tetrahydroisoquinoline/isoindoline hydroxamic acid compounds” (4SC AG, priority 2008, dated 2013).
Structures can show the parent of a compound that is named as a salt.

The molecules below were run against T1, rHDAC6 (Homo sapiens, UniProt Q9UBN7) (assay: rHDAC6 enzymatic assay (recombinant FLAG-HDAC6)). Settings: FLAG-HDAC6 from HEK293; 10 μM Ac-NH-GGK(Ac)-AMC, 3 h at 30° C.; read-out: rHDAC6 [pIC50] (converted).
T1 construct: FLAG; made in house
T1 sequence (Q9UBN7 1-1215): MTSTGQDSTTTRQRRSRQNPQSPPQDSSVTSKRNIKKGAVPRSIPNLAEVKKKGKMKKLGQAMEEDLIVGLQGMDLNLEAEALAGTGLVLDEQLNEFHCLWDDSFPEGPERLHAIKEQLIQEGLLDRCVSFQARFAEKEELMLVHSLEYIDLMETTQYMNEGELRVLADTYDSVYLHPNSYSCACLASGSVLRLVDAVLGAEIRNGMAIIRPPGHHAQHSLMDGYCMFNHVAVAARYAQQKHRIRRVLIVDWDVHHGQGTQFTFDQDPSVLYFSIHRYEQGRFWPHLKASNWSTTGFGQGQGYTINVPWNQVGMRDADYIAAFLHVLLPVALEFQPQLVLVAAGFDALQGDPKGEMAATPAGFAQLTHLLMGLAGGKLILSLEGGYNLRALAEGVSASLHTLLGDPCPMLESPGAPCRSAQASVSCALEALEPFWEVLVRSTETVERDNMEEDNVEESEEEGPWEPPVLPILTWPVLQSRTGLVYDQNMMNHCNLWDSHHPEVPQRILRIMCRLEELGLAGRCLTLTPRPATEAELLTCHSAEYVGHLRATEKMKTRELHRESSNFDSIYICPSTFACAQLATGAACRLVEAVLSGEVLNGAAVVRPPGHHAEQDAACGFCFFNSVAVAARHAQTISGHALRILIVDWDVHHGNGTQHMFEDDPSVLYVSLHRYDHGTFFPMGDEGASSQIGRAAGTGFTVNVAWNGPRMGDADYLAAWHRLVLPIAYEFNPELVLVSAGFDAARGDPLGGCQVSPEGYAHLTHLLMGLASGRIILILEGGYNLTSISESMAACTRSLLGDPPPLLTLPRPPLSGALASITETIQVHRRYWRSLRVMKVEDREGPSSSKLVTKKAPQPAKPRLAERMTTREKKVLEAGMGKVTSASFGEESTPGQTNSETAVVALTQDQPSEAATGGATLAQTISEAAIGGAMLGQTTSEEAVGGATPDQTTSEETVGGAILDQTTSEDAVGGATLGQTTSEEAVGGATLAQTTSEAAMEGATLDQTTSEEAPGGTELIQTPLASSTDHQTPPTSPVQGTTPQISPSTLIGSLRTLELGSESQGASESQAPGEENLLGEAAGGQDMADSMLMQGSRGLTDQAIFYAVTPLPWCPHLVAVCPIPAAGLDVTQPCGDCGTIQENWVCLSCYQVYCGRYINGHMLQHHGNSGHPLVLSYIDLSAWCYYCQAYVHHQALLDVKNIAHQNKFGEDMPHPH
Assay type: biochemical
Excerpt: Human HDAC1 and HDAC6 fused with the FLAG epitope are stably expressed in HEK293 cells while human HDAC3 and HDAC8 fused with the FLAG epitope are overexpressed in baculo-virus infected insect (Sf21) cells. To ensure stability of FLAG-HDAC3 the SMRT protein is co-expressed in the corresponding insect cells. […] FLAG-HDAC3 and FLAG-HDAC8 are also purified by M2-agarose affinity chromatography after mass cultivation of the insect cells and cell lysis.
The HDAC enzyme activity assay is done as described by Wegener et al. (Chem. & Biol. 10, 61-68, 2003). Briefly 40 μl of a 1:100 dilution (=0.4 μl) nuclear HeLa extract (mixture of class I and II HDACs), 29 μl enzyme buffer (15 mM Tris HCl pH 8.1, 0.25 mM EDTA, 250 mM NaCl, 10% v:v glycerol) and 1 μl test compound are added to a well of a 96 well microtiter plate and reaction started by addition of 3 μl substrate (Ac-NH-GGK(Ac)-AMC; final concentration 25 μM and final volume […]). […] After incubation at room temperature for further 40 min, fluorescence is measured using a Wallac Victor 1420 multilabel counter (Ex 355 nm, Em 460 nm) for quantification of AMC (7-amino-4-methylcoumarin) generated by trypsine cleavage of the deacetylated peptide. […] The corresponding pIC50 values of the compounds for HDAC inhibitory activity are determined from the concentration-effect curves by means of non-linear regression (Graphpad Prism software).
The HDAC1, HDAC3 and HDAC6 enzymatic assays are done with slight modifications with recombinant FLAG-HDAC1 and FLAG-HDAC6 proteins isolated from HEK293 cell lysates or recombinant FLAG-HDAC3 isolated from insect cells, respectively. The HDAC8 enzymatic assay using recombinant FLAG-HDAC8 isolated from insect cells is done with a different substrate. About 4.5 ng/well FLAG-HDAC1 and 3.1 ng/well FLAG-HDAC6 (dependent on batches and specific activity) are incubated with 6 μM or 10 μM Ac-NH-GGK(Ac)-AMC substrate, respectively, for 3 h at 30° C. About 1.7 ng/well FLAG-HDAC3 is incubated with 6 μM Ac-NH-GGK(Ac)-AMC substrate for 2 h at 30° C., while approximately 130 ng/well FLAG-HDAC8 is incubated with 50 μM Ac-RHK(Ac)K(Ac)-AMC substrate for 3 h at 30° C. Termination of the reaction and all further steps are done as described for HeLa cell nuclear extracts as a source for HDAC enzymatic activity. The corresponding pIC50 values of the compounds for HDAC1, HDAC3, HDAC6 and HDAC8 inhibitory activity are determined from the concentration-effect curves by means of non-linear regression.

Row | IC50 | Compound
1 | 1 to 100 nM | O=C(NO)c1ccc2c(c1)CCN(C(=O)Cc1c[nH]c3ccccc13)C2 [Example 1, N-Hydroxy-2-(indol-3-ylacetyl)-1,2,3,4-tetrahydroisoquinoline-6-carboxamide hydrochloride]
2 | 100 to 1000 nM | COCCCOC(=O)N1CCc2cc(C(=O)NO)ccc2C1 [Example 6, 3-Methoxypropyl-6-(hydroxycarbamoyl)-3,4-dihydroisoquinoline-2(1H)-carboxylate]
3 | 1 to 100 nM | O=C(NO)c1ccc2c(c1)CN(C(=O)Cc1cccnc1)CC2 [Example 19, N-Hydroxy-2-(pyridin-3-ylacetyl)-1,2,3,4-tetrahydroisoquinoline-7-carboxamide hydrochloride]
4 | 100 to 1000 nM | COCCOCC(=O)N1CCc2cc(C(=O)NO)ccc2C1 [Example 11, N-Hydroxy-2-[(2-methoxyethoxy)acetyl]-1,2,3,4-tetrahydroisoquinoline-6-carboxamide]
5 | 1 to 100 nM | CC#CC(=O)N1CCc2ccc(C(=O)NO)cc2C1 [Example 17, 2-But-2-ynoyl-N-hydroxy-1,2,3,4-tetrahydroisoquinoline-7-carboxamide]
6 | 1 to 100 nM | O=C(NO)c1ccc2c(c1)CCN(C(=O)C1CC1)C2 [Example 16, N-Hydroxy-2-(cyclopropylcarbonyl)-1,2,3,4-tetrahydroisoquinoline-6-carboxamide]
7 | 100 to 1000 nM | O=C(NO)c1ccc2c(c1)CCN(C(=O)Cc1cccnc1)C2 [Example 8, N-Hydroxy-2-(pyridin-3-ylacetyl)-1,2,3,4-tetrahydroisoquinoline-6-carboxamide hydrochloride]
8 | 1 to 100 nM | O=C(NO)c1ccc2c(c1)CN(C(=O)Cc1ccccn1)CC2 [Example 21, N-Hydroxy-2-(pyridin-2-ylacetyl)-1,2,3,4-tetrahydroisoquinoline-7-carboxamide hydrochloride]
9 | 1 to 100 nM | Cc1ccc(C(=O)N2CCc3ccc(C(=O)NO)cc3C2)cc1 [Example 23, N-Hydroxy-2-(4-methylbenzoyl)-1,2,3,4-tetrahydroisoquinoline-7-carboxamide]
10 | 1 to 100 nM | O=C(NO)c1ccc2c(c1)CN(C(=O)NCCc1ccccc1)CC2 [Example 22, N7-Hydroxy-N2-(2-phenylethyl)-3,4-dihydroisoquinoline-2,7(1H)-dicarboxamide]
11 | 1 to 100 nM | COc1ccc2[nH]c(C(=O)N3CCc4ccc(C(=O)NO)cc4C3)cc2c1 [Example 24, N-Hydroxy-2-[(5-methoxy-1H-indol-2-yl)carbonyl]-1,2,3,4-tetrahydroisoquinoline-7-carboxamide]
12 | 1 to 100 nM | CNC(=O)N1CCc2cc(C(=O)NO)ccc2C1 [Example 4, N6-Hydroxy-N2-methyl-3,4-dihydroisoquinoline-2,6(1H)-dicarboxamide]
13 | 1 to 100 nM | COc1ccc2[nH]c(C(=O)N3CCc4cc(C(=O)NO)ccc4C3)cc2c1 [Example 15, N-Hydroxy-2-[(5-methoxy-1H-indol-2-yl)carbonyl]-1,2,3,4-tetrahydroisoquinoline-6-carboxamide]

More lines, now with the values behind:

Row | Compound | IC50
14 | Cc1nccn1CC(=O)N1CCc2cc(C(=O)NO)ccc2C1 [Example 10, N-Hydroxy-2-[(2-methyl-1H-imidazol-1-yl)acetyl]-1,2,3,4-tetrahydroisoquinoline-6-carboxamide hydrochloride] | 100 to 1000 nM
15 | O=C(NO)c1ccc2c(c1)CN(C(=O)C1CCOC1)CC2 (stereo not shown) [Example 20, N-Hydroxy-2-(tetrahydrofuran-3-ylcarbonyl)-1,2,3,4-tetrahydroisoquinoline-7-carboxamide] | 100 to 1000 nM
16 | CN(C)CCCC(=O)N1CCc2cc(C(=O)NO)ccc2C1 [Example 9, 2-[4-(Dimethylamino)butanoyl]-N-hydroxy-1,2,3,4-tetrahydroisoquinoline-6-carboxamide hydrochloride] | 100 to 1000 nM
17 | CC(=O)N1CCc2cc(C(=O)NO)ccc2C1 [Example 12, 2-Acetyl-N-hydroxy-1,2,3,4-tetrahydroisoquinoline-6-carboxamide] | 100 to 1000 nM
18 | O=C(NO)c1ccc2c(c1)CN(C(=O)Cc1c[nH]c3ccccc13)CC2 [Example 18, N-Hydroxy-2-(1H-indol-3-ylacetyl)-1,2,3,4-tetrahydroisoquinoline-7-carboxamide] | 1 to 100 nM
19 | O=C(NO)c1ccc2c(c1)CCN(C(=O)CCc1cccnc1)C2 [Example 7, N-Hydroxy-2-(3-pyridin-3-ylpropanoyl)-1,2,3,4-tetrahydroisoquinoline-6-carboxamide hydrochloride] | 1 to 100 nM
20 | O=C(NO)c1ccc2c(c1)CCN(C(=O)C1CCC1)C2 [Example 3, 2-(Cyclobutylcarbonyl)-N-hydroxy-1,2,3,4-tetrahydroisoquinoline-6-carboxamide] | 1 to 100 nM
21 | COCCCNC(=O)N1CCc2cc(C(=O)NO)ccc2C1 [Example 5, N6-Hydroxy-N2-(3-methoxypropyl)-3,4-dihydroisoquinoline-2,6(1H)-dicarboxamide] | 1 to 100 nM
22 | O=C(NO)c1ccc2c(c1)CCN(C(=O)C1CCOC1)C2 (stereo not shown) [Example 13, N-Hydroxy-2-(tetrahydrofuran-3-ylcarbonyl)-1,2,3,4-tetrahydroisoquinoline-6-carboxamide] | 100 to 1000 nM
